PubChem BioAssay (NCI)
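These data come from cells grown in 96-well plates and exposed to compound for 48 hours at five concentrations. The concentration for full growth arrest is given as TGI.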

Tests used:
Test in all cases: NCI tumour cell line growth inhibition, 48 h
[1] = tested on: 786-0 renal
[2] = tested on: A498 renal
[3] = tested on: A549 NSCLC
[4] = tested on: ACHN renal
[5] = tested on: CCRF-CEM leukemia
[6] = tested on: DLD-1 colon
[7] = tested on: DMS 114 small cell lung
[8] = tested on: DMS 273 small cell lung
[9] = tested on: EKVX NSCLC
[10] = tested on: HCC-2998 colon
[11] = tested on: HCT-116 colon
[12] = tested on: HCT-15 colon
[13] = tested on: HL-60(TB) leukemia
[14] = tested on: HOP-18 NSCLC
[15] = tested on: HOP-62 NSCLC
[16] = tested on: HOP-92 NSCLC
[17] = tested on: HT29 colon
[18] = tested on: IGROV1 ovarian
[19] = tested on: K-562 leukemia
[20] = tested on: KM12 colon
[21] = tested on: KM20L2 colon
[22] = tested on: LOX IMVI melanoma
[23] = tested on: LXFL 529 NSCLC
[24] = tested on: M14 melanoma
[25] = tested on: MALME-3M melanoma
[26] = tested on: MOLT-4 leukemia
[27] = tested on: NCI-H226 lung
[28] = tested on: NCI-H23 lung
[29] = tested on: NCI-H460 lung
[30] = tested on: NCI-H522 lung
[31] = tested on: OVCAR-3 ovarian
[32] = tested on: OVCAR-4 ovarian
[33] = tested on: OVCAR-5 ovarian
[34] = tested on: OVCAR-8 ovarian
[35] = tested on: RPMI-8226 leukemia
[36] = tested on: RXF 393 renal
[37] = tested on: RXF-631 renal
[38] = tested on: SF-268 CNS
[39] = tested on: SF-295 CNS
[40] = tested on: SF-539 CNS
[41] = tested on: SK-MEL-28 melanoma
[42] = tested on: SK-MEL-5 melanoma
[43] = tested on: SK-OV-3 ovarian
[44] = tested on: SN12C renal
[45] = tested on: SNB-19 CNS
[46] = tested on: SNB-75 CNS
[47] = tested on: SR leukemia
[48] = tested on: SW-620 colon
[49] = tested on: TK-10 renal
[50] = tested on: U251 CNS
[51] = tested on: UACC-257 melanoma
[52] = tested on: UACC-62 melanoma
[53] = tested on: UO-31 renal
[54] = tested on: CAKI-1 renal
[55] = tested on: COLO 205 colon
[56] = tested on: M19-MEL melanoma
[57] = tested on: SNB-78 CNS
[58] = tested on: XF 498 CNS
[59] = tested on: SK-MEL-2 melanoma

Measured: TGI

N#Cc1c(-c2ccco2)cc(-c2ccc(N)cc2)[nH]c1=O
not listed: [54] | [55] | [56] | [57] | [58] | [59]
> 100 µM: all other assays above

O=C1C=CC(=CC=C2C=CN(CCCCCCCCCCC(=O)NCCCCCCCCCCCC(=O)O)C=C2)C=C1
not listed: [14] | [59]
> 100 µM: all other assays above

Cc1ccc2c(c1-c1ccccc1)C(=O)OC2
60.7 µM: [21]
43.4 µM: [9]
92.8 µM: [52]
not listed: [16] | [22] | [29] | [33] | [39] | [40] | [58]
> 100 µM: all other assays above
